Tested on: lung cancer cell line NCI-H460
Assay: inhibition of cell proliferation
Type: cell-based
Settings: Homo sapiens
Procedure: In order to evaluate the potential of HA nanocapsules encapsulating cytostatic docetaxel molecule to inhibit cell proliferation of lung cancer cell line NCI-H460, HA nanocapsules were prepared using hexadecyltrimethylammonium bromide (1.8 mg) according to the procedure described in Example 6. The results in FIG. 7 show the greatest ability to inhibit the proliferation of nanocapsules encapsulating docetaxel compared to the free molecule when systems are brought into contact for 2 to 48 h with the cancer cells. Moreover, one can see the safety of the systems without docetaxel. IC50 values, the concentration which produces 50% mortality of the population, was calculated using Graph Pad Prism 2.1 (Graph Pad Software).
In order to evaluate the potential of Pasn nanocapsules encapsulating docetaxel to inhibit cell proliferation of lung cancer cell line NCI-H460, PAsn nanocapsules were prepared using hexadecyltrimethylammonium bromide (1.8 mg) according to the procedure described in Example 12. The results in FIG. 11 show the greatest ability to inhibit the proliferation of nanocapsules encapsulating docetaxel compared to the free molecule when systems are brought into contact for 2 to 48 h with the cancer cells. Moreover, one can see the safety of the systems without docetaxel. IC50 values were calculated using Graph Pad Prism 2.1 (Graph Pad Software).

IC50 (NCI-H460, in contact with the cells for 2 h): 105 nM
IC50 (NCI-H460, in contact with the cells for 48 h): 36 nM
SMILES: CC(=O)O[C@@]12CO[C@@H]1C[C@H](O)[C@@]1(C)C(=O)[C@H](O)C3=C(C)[C@@H](OC(=O)[C@H](O)[C@@H](NC(=O)OC(C)(C)C)c4ccccc4)C[C@@](O)([C@@H](OC(=O)c4ccccc4)[C@H]21)C3(C)C [docetaxel]

From patent publication US9415019B2, “Nanocapsules with a polymer shell” (Universidade de Santiago de Compostela, priority 2011, dated 2016)
